From ChEMBL document CHEMBL2069276, “Identification of a novel serum and glucocorticoid regulated kinase-1 (SGK1) ligand from virtual screening” (Bioorg Med Chem Lett, 2012) come the findings set out here.

For data set [1], the system named is T1, Serine/threonine-protein kinase Sgk1 (Homo sapiens), O00141 [S422D].
T1 sequence (whole entry): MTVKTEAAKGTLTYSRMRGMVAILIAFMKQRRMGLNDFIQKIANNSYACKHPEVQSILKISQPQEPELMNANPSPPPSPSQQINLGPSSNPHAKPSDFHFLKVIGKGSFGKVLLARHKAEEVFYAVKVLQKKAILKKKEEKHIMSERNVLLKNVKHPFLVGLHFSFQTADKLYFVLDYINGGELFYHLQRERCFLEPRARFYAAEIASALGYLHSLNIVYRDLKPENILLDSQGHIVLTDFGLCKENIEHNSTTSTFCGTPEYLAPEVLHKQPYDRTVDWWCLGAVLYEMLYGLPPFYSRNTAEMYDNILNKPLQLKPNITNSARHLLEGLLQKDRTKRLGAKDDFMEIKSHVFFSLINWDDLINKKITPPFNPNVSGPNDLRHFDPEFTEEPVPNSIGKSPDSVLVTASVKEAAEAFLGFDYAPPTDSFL
The experiment in a line: Inhibition of SGK1 S422D mutant expressed in human HEK293 cells assessed as inhibition of FOXO3a phosphorylation at Thr 32 after 40 hrs. The class given is cell-based.

Data set [2] concerns HEK293. The experiment in a line: Induction of vacuolization in human HEK293 cells at >1 uM. In kind it is cell-based.
The target in data set [3] is T2, Serine/threonine-protein kinase Sgk1 (Homo sapiens) (UniProt O00141).
T2 sequence (whole entry): T1 sequence (whole entry) with D422S
The experiment in a line: Inhibition of constitutively active SGK1 expressed in human HEK293 cells assessed as inhibition of FOXO3a phosphorylation at Thr 32 after 40 hrs. In kind it is cell-based.

The test system of data set [4] is HEK293. As to the kind of experiment: Induction of vacuolization in human HEK293 cells up to 100 uM. The class given is cell-based.
Data set [5] deals with T2, Serine/threonine-protein kinase Sgk1 (Homo sapiens). As to the kind of experiment: Inhibition of constitutively active SGK1 expressed in human HEK293 cells assessed as inhibition of FOXO3a phosphorylation at Thr 32 at 100 uM after 40 hrs. The class given is cell-based.
The target in data set [6] is T3, Serine/threonine-protein kinase Sgk1 (Homo sapiens, UniProt O00141).
T3 sequence (O00141 whole entry): T1 sequence (whole entry) with D422S
The experiment in a line: Inhibition of human recombinant SGK1.

Data set [7] deals with T1, Serine/threonine-protein kinase Sgk1 (Homo sapiens), O00141 [S422D]. The experiment in a line: Inhibition of SGK1 S422D mutant expressed in human HEK293 cells assessed as inhibition of FOXO3a phosphorylation at Thr 32 at 100 uM after 40 hrs. The class given is cell-based.

Numbering of substitutions follows the chain as printed. The source made the active and inactive calls. No cut-off for these calls is given here.

As for `O=C(O)c1ccc(-c2c[nH]c3ncc(-c4ccccc4)cc23)cc1C1CCCC1` [GSK-650394], the inhibition entry in data set [1] and in data set [3] was “Dose-dependent effect” each time. In the data set with HEK293 [2], the Activity entry is listed as “Toxic”.
Broadly, the IC50 is the point on the concentration scale where inhibition reaches its midpoint. Turning to `COc1ccc(NC(=O)Cc2nc(-c3ccc([N+](=O)[O-])cc3)cs2)cc1`, the Activity entry with HEK293 [4] is reported as “Non-toxic”. Also, the inhibition entry in data set [5] and in data set [7] was “Active” in each case. For the same compound, the IC50 in data set [6] was 60 µM.
